What was measured:
Assay in all cases: DSF assay
Type in all cases: binding
Conditions in all cases: 20 µM compound
AURKBA = molecular target: T1, AURKBA (Homo sapiens, UniProt Q96GD4)
T1 construct: purchased in-house DSF panel (SGC-style construct names; the trailing A/B is a construct suffix)

BRPF1A = system: BRPF1A
CAMK4A = molecular target: T2, CAMK4A (Homo sapiens, UniProt Q16566)
T2 construct: purchased in-house DSF panel (SGC-style construct names; the trailing A/B is a construct suffix)
T2 sequence (Q16566 1-473): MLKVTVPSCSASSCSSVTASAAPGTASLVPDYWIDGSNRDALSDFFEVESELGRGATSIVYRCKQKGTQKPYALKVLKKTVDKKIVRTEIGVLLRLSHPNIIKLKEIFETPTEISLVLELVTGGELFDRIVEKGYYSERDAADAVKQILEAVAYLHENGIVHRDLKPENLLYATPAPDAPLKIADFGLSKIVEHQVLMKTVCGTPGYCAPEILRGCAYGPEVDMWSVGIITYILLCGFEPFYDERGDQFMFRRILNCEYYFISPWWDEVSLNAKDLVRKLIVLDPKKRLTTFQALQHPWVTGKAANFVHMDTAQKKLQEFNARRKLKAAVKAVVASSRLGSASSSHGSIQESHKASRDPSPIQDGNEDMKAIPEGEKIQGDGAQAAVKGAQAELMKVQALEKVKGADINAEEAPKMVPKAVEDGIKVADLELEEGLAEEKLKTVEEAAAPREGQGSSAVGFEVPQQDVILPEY

MAP2K6A = molecular target: T3, MAP2K6A (Homo sapiens, UniProt P52564)
T3 construct: purchased in-house DSF panel (SGC-style construct names; the trailing A/B is a construct suffix)
T3 sequence (P52564 1-334): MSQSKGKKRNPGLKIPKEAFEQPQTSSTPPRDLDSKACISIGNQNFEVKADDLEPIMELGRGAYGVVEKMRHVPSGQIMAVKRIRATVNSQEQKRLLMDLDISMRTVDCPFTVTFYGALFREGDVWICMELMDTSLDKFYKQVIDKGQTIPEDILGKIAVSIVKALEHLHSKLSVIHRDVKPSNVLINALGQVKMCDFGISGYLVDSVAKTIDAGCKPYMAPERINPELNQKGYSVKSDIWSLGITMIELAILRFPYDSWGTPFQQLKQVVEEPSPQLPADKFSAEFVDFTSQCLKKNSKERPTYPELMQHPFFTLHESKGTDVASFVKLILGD

MAPKAPK2A = molecular target: T4, MAPKAPK2A (Homo sapiens, UniProt P49137)
T4 construct: purchased in-house DSF panel (SGC-style construct names; the trailing A/B is a construct suffix)
T4 sequence (P49137 64-325): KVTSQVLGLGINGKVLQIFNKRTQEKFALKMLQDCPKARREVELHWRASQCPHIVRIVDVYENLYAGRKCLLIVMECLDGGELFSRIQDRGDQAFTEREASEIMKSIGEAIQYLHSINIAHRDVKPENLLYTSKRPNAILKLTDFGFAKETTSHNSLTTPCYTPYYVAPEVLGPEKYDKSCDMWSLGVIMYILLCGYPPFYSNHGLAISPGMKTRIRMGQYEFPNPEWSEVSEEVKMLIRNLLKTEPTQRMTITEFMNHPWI

PAK1A = molecular target: T5, PAK1A (Homo sapiens, UniProt Q13153)
T5 construct: purchased in-house DSF panel (SGC-style construct names; the trailing A/B is a construct suffix)
T5 sequence (Q13153 249-545): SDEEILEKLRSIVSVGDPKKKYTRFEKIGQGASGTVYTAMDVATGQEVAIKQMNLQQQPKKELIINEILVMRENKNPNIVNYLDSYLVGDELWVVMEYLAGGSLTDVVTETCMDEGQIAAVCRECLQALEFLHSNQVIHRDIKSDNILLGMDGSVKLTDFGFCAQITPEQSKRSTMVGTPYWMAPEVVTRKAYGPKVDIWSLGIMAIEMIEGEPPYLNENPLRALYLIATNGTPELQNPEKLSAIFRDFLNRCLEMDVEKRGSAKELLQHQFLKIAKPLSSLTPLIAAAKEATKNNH

RIOK1A = molecular target: T6, RIOK1A (Homo sapiens, UniProt Q9BRS2)
T6 construct: purchased in-house DSF panel (SGC-style construct names; the trailing A/B is a construct suffix)
T6 sequence (Q9BRS2 143-494): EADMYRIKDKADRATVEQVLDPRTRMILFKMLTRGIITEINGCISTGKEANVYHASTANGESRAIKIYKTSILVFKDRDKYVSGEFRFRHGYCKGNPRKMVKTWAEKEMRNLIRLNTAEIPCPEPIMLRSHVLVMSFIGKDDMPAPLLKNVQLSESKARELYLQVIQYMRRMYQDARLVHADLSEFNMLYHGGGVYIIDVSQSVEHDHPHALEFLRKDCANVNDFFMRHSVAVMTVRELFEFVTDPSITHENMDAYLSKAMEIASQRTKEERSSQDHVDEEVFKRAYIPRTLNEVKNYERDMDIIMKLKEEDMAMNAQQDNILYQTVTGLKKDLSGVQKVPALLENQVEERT

STK3A = molecular target: T7, STK3A (Homo sapiens, UniProt Q13188)
T7 construct: purchased in-house DSF panel (SGC-style construct names; the trailing A/B is a construct suffix)
T7 sequence (Q13188 16-313): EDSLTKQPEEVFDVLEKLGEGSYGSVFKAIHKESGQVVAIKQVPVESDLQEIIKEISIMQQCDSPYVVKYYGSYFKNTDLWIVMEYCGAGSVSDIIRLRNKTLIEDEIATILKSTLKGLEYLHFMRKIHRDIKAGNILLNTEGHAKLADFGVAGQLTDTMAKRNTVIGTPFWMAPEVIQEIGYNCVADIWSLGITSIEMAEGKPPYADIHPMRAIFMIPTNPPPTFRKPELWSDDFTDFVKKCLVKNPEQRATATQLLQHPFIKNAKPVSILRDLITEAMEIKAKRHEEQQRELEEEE

STK6A = molecular target: T8, STK6A (Homo sapiens, UniProt O14965)
T8 construct: purchased in-house DSF panel (SGC-style construct names; the trailing A/B is a construct suffix)
T8 sequence (O14965 122-403): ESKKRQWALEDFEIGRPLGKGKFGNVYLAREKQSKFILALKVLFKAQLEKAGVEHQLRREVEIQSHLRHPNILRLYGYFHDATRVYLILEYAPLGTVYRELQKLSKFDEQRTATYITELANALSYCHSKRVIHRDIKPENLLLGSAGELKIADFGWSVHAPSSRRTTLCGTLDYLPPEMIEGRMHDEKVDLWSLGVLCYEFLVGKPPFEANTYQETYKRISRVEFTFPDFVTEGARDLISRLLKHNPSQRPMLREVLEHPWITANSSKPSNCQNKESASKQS

T1 sequence (Q96GD4 whole entry): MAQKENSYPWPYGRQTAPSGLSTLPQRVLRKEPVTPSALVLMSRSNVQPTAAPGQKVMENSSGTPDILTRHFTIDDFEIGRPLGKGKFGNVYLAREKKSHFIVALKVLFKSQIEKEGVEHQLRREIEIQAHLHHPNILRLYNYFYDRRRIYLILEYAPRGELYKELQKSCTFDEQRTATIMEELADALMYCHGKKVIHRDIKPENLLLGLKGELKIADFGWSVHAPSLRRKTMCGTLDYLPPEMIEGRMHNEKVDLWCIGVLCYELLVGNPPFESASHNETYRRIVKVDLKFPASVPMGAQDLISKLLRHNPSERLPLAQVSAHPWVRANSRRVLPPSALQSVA

CCOC(=O)c1cc(Nc2cc(C3CC3)[nH]n2)nc(Nc2ccc(CC#N)cc2)n1 [compound 5]
ΔTm at 20 µM (AURKBA): 8.24 °C | ΔTm (BRPF1A): -0.64 °C | ΔTm at 20 µM (CAMK4A): 3.64 °C | ΔTm at 20 µM (MAP2K6A): 8.41 °C | ΔTm at 20 µM (MAPKAPK2A): 0.53 °C | ΔTm at 20 µM (PAK1A): 1.05 °C | ΔTm at 20 µM (RIOK1A): 4.9 °C | ΔTm at 20 µM (STK3A): 9.87 °C | ΔTm at 20 µM (STK6A): 14.4 °C

CC(C)(C)OC(=O)NCCCOCCOCCOCCCNC(=O)c1cc(Nc2cc(C3CC3)[nH]n2)nc(Nc2ccc(CC#N)cc2)n1 [5-L]
ΔTm at 20 µM (AURKBA): 2.62 °C | ΔTm (BRPF1A): -0.68 °C | ΔTm at 20 µM (CAMK4A): 5.11 °C | ΔTm at 20 µM (MAP2K6A): 5.96 °C | ΔTm at 20 µM (MAPKAPK2A): 0.95 °C | ΔTm at 20 µM (PAK1A): -0.24 °C | ΔTm at 20 µM (RIOK1A): 5.35 °C | ΔTm at 20 µM (STK3A): 8.81 °C | ΔTm at 20 µM (STK6A): 12.2 °C

CC(C)(C)OC(=O)NCCOCCOCCOCCOCCC(=O)N1CCN(c2cc(Nc3cc(C4CC4)[nH]n3)nc(Nc3ccc(CC#N)cc3)n2)CC1 [4-L]
ΔTm at 20 µM (AURKBA): 12.7 °C | ΔTm (BRPF1A): 1.15 °C | ΔTm at 20 µM (CAMK4A): 2.43 °C | ΔTm at 20 µM (MAP2K6A): 5.77 °C | ΔTm at 20 µM (MAPKAPK2A): 0.42 °C | ΔTm at 20 µM (PAK1A): 0.92 °C | ΔTm at 20 µM (RIOK1A): -0.05 °C | ΔTm at 20 µM (STK3A): 8.18 °C | ΔTm at 20 µM (STK6A): 18.7 °C

Reference: publication PMC11851430, “Workflow for E3 Ligase Ligand Validation for PROTAC Development” (ACS Chemical Biology, 2025)
